± gives the expanded uncertainty stated by the source.
Assay: activity coefficient (dimensionless); of the first substance listed, at infinite dilution; xn = mol fraction of the nth substance listed
Settings: 323.15 K; 101 kPa; Liquid; Chromatography; x1 = 0

Point of comparison: `C1CCCCC1` [cyclohexane] + CCCCCCn1cc[n+](C)c1.O=C([O-])C(F)(F)F, activity coefficient 16.9 ± 1.8. Against it:
- ClCCCl [1,2-dichloroethane] + CCCCCCn1cc[n+](C)c1.O=C([O-])C(F)(F)F — lower, 0.9 ± 0.09
- Cc1ccccc1C [1,2-dimethylbenzene] + CCCCCCn1cc[n+](C)c1.O=C([O-])C(F)(F)F — lower, 3.83 ± 0.4
- Cc1cccc(C)c1 [1,3-dimethylbenzene] + CCCCCCn1cc[n+](C)c1.O=C([O-])C(F)(F)F — lower, 4.34 ± 0.46
- Cc1ccc(C)cc1 [1,4-dimethylbenzene] + CCCCCCn1cc[n+](C)c1.O=C([O-])C(F)(F)F — lower, 4.24 ± 0.45
- C1COCCO1 [1,4-dioxane] + CCCCCCn1cc[n+](C)c1.O=C([O-])C(F)(F)F — lower, 1.93 ± 0.2
- CC(C)CC(C)(C)C [2,2,4-trimethylpentane] + CCCCCCn1cc[n+](C)c1.O=C([O-])C(F)(F)F — higher, 46.8 ± 4.9
- CC(C)CO [2-methyl-1-propanol] + CCCCCCn1cc[n+](C)c1.O=C([O-])C(F)(F)F — lower, 0.29 ± 0.04
- CC(C)=O [acetone] + CCCCCCn1cc[n+](C)c1.O=C([O-])C(F)(F)F — lower, 1.68 ± 0.18
- CC#N [acetonitrile] + CCCCCCn1cc[n+](C)c1.O=C([O-])C(F)(F)F — lower, 1.11 ± 0.11
- c1ccccc1 [benzene] + CCCCCCn1cc[n+](C)c1.O=C([O-])C(F)(F)F — lower, 2.09 ± 0.22
- Brc1ccccc1 [bromobenzene] + CCCCCCn1cc[n+](C)c1.O=C([O-])C(F)(F)F — lower, 2.24 ± 0.24
- Clc1ccccc1 [chlorobenzene] + CCCCCCn1cc[n+](C)c1.O=C([O-])C(F)(F)F — lower, 2.24 ± 0.24
- C1=CCCCC1 [cyclohexene] + CCCCCCn1cc[n+](C)c1.O=C([O-])C(F)(F)F — lower, 9.6 ± 1
- ClCCl [dichloromethane] + CCCCCCn1cc[n+](C)c1.O=C([O-])C(F)(F)F — lower, 0.67 ± 0.07
- CCO [ethanol] + CCCCCCn1cc[n+](C)c1.O=C([O-])C(F)(F)F — lower, 0.22 ± 0.03
- CCOC(C)=O [ethyl acetate] + CCCCCCn1cc[n+](C)c1.O=C([O-])C(F)(F)F — lower, 2.91 ± 0.31
- CCc1ccccc1 [ethylbenzene] + CCCCCCn1cc[n+](C)c1.O=C([O-])C(F)(F)F — lower, 4.22 ± 0.44
- CCCCCCC [heptane] + CCCCCCn1cc[n+](C)c1.O=C([O-])C(F)(F)F — higher, 27 ± 2.8
- CCCCCC [hexane] + CCCCCCn1cc[n+](C)c1.O=C([O-])C(F)(F)F — higher, 29 ± 3
- CO [methanol] + CCCCCCn1cc[n+](C)c1.O=C([O-])C(F)(F)F — lower, 0.12 ± 0.03
- CC1CCCCC1 [methylcyclohexane] + CCCCCCn1cc[n+](C)c1.O=C([O-])C(F)(F)F — within error, 19.8 ± 2.1
- CCCCCCCCC [nonane] + CCCCCCn1cc[n+](C)c1.O=C([O-])C(F)(F)F — higher, 64.2 ± 6.8
- CCCCCCCC [octane] + CCCCCCn1cc[n+](C)c1.O=C([O-])C(F)(F)F — higher, 49.6 ± 5.2
- CCCO [propan-1-ol] + CCCCCCn1cc[n+](C)c1.O=C([O-])C(F)(F)F — lower, 0.25 ± 0.04
- CC(C)O [propan-2-ol] + CCCCCCn1cc[n+](C)c1.O=C([O-])C(F)(F)F — lower, 0.36 ± 0.04
- C=Cc1ccccc1 [styrene] + CCCCCCn1cc[n+](C)c1.O=C([O-])C(F)(F)F — lower, 2.46 ± 0.26
- ClC(Cl)(Cl)Cl [tetrachloromethane] + CCCCCCn1cc[n+](C)c1.O=C([O-])C(F)(F)F — lower, 0.8 ± 0.08
- C1CCOC1 [tetrahydrofuran] + CCCCCCn1cc[n+](C)c1.O=C([O-])C(F)(F)F — lower, 1.98 ± 0.21
- Cc1ccccc1 [toluene] + CCCCCCn1cc[n+](C)c1.O=C([O-])C(F)(F)F — lower, 3.06 ± 0.32
- ClC(Cl)Cl [trichloromethane] + CCCCCCn1cc[n+](C)c1.O=C([O-])C(F)(F)F — lower, 0.22 ± 0.03

Same assay, conditions: 333.15 K; 101 kPa; Liquid; Chromatography; x1 = 0

Point of comparison: `CC#N` [acetonitrile] + CCCCCCn1cc[n+](C)c1.O=C([O-])C(F)(F)F, activity coefficient 1.16 ± 0.12. Against it:
- ClCCCl [1,2-dichloroethane] + CCCCCCn1cc[n+](C)c1.O=C([O-])C(F)(F)F — within error, 1.1 ± 0.11
- Cc1ccccc1C [1,2-dimethylbenzene] + CCCCCCn1cc[n+](C)c1.O=C([O-])C(F)(F)F — higher, 3.98 ± 0.42
- Cc1cccc(C)c1 [1,3-dimethylbenzene] + CCCCCCn1cc[n+](C)c1.O=C([O-])C(F)(F)F — higher, 4.39 ± 0.46
- Cc1ccc(C)cc1 [1,4-dimethylbenzene] + CCCCCCn1cc[n+](C)c1.O=C([O-])C(F)(F)F — higher, 4.29 ± 0.45
- C1COCCO1 [1,4-dioxane] + CCCCCCn1cc[n+](C)c1.O=C([O-])C(F)(F)F — higher, 1.94 ± 0.2
- CC(C)CO [2-methyl-1-propanol] + CCCCCCn1cc[n+](C)c1.O=C([O-])C(F)(F)F — lower, 0.3 ± 0.04
- CC(C)=O [acetone] + CCCCCCn1cc[n+](C)c1.O=C([O-])C(F)(F)F — higher, 1.68 ± 0.18
- c1ccccc1 [benzene] + CCCCCCn1cc[n+](C)c1.O=C([O-])C(F)(F)F — higher, 2.1 ± 0.22
- Brc1ccccc1 [bromobenzene] + CCCCCCn1cc[n+](C)c1.O=C([O-])C(F)(F)F — higher, 2.29 ± 0.24
- Clc1ccccc1 [chlorobenzene] + CCCCCCn1cc[n+](C)c1.O=C([O-])C(F)(F)F — higher, 2.22 ± 0.23
- ClCCl [dichloromethane] + CCCCCCn1cc[n+](C)c1.O=C([O-])C(F)(F)F — lower, 0.68 ± 0.07

Reference: the NIST ThermoML archive (doi:10.1016/j.jct.2013.10.038)
